In patent US20140323500A1, “NADPH OXIDASE 4 INHIBITORS AND USE THEREOF” (GENKYOTEX SA, priority 2011, published 2014):
Where two headings read alike, the source gives them in different places.

How the values were obtained:
human Nox4 = molecular target: T1, human Nox4 (Homo sapiens, UniProt Q9NPH5); experiment: ROS production by membranes expressing human Nox4, cell-free Amplex Red assay; type: biochemical; details: for Ki: read-out: Ki hNox4
T1 construct: expressed in transfected cells; host or cells: T-REx-293 (hNOX4 T-REx-293), tetracycline-induced; membrane fraction
T1 sequence (Q9NPH5 1-578): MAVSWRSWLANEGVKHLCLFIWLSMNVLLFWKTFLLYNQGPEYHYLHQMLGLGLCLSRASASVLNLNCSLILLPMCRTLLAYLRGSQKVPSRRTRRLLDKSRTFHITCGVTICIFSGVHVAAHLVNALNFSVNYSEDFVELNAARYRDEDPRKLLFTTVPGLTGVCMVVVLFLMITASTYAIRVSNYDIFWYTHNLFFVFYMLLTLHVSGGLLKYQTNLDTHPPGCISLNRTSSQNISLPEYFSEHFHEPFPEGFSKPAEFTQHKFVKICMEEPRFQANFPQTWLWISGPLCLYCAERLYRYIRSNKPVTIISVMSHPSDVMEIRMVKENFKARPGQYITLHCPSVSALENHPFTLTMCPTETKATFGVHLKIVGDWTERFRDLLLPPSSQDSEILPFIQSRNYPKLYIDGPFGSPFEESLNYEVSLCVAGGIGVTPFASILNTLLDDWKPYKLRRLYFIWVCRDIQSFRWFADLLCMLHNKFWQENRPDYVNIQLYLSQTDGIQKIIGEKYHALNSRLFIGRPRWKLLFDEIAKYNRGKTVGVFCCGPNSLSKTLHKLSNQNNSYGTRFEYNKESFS
T1 sequence (P13498 2-195 partner limits assumed): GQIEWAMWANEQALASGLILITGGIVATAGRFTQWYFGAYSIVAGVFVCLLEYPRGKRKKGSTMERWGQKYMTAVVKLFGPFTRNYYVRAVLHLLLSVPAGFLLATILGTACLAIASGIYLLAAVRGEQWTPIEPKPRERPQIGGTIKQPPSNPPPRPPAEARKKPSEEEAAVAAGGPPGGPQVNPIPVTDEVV
Summary of the method: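 Membranes from tetracycline-induced (1 μg/ml, 24 h) T-REx cells overexpressing human Nox4, incubated in PBS with Amplex Red, HRP and co-factors; NADPH starts ROS production. Compounds 1 nM-100 μM, 20 min at 37° C.; fluorescence (ex 544/em 590 nm) over 10 min; Ki via Cheng-Prusoff, ≥3 experiments in triplicate.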

[1] = tested on: xanthine/xanthine oxidase; experiment: Antioxidant activity in an assay of Example 1 (ROS production by xanthine/xanthine oxidase, Amplex Red); type: biochemical; details: as measured in an assay of Example 1
Chain of xanthine/xanthine oxidase (P47989 whole entry): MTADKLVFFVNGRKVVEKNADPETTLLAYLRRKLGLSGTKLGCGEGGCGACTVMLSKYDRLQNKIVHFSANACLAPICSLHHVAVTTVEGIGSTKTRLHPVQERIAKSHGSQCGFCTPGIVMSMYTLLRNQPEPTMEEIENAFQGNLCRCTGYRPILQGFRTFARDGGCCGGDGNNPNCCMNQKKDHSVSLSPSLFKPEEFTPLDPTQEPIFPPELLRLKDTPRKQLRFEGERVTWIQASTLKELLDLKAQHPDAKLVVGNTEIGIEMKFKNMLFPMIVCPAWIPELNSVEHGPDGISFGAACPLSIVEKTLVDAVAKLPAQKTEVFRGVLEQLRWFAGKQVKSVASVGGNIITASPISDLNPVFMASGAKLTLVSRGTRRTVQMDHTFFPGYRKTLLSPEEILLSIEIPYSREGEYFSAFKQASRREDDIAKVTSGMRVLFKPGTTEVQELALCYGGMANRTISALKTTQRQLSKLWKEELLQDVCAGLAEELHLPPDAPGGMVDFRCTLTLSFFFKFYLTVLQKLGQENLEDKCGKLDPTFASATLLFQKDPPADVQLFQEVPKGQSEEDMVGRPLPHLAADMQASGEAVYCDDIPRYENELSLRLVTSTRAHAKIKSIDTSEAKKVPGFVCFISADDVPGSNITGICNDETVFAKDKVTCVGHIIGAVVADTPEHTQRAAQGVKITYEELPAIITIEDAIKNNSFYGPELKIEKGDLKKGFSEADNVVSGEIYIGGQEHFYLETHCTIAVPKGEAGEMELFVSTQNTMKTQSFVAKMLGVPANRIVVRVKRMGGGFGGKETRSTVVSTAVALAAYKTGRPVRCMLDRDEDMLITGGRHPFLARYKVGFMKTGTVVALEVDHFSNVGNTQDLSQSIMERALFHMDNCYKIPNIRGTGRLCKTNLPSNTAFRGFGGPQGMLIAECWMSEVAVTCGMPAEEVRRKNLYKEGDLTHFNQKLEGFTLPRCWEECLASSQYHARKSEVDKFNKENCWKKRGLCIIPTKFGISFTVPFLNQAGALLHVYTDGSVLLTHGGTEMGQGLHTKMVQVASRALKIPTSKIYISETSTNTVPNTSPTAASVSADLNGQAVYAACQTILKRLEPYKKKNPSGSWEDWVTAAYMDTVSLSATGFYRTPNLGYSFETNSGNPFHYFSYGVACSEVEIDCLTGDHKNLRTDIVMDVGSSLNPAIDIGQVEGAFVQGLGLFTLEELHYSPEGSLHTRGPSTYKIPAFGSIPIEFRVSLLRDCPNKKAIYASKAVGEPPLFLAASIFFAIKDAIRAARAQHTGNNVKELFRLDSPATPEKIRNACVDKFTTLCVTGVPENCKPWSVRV
Procedure: Reactive Oxygen Species (ROS) production by membranes expressing either human Nox1, or human Nox2 or human Nox4 or human Nox5 or by xanthine/xanthine oxidase were measured using the Amplex Red (AR) method following a slightly modified version of the manufacturer's instruction manual (Invitrogen). Briefly, membranes or xanthine were incubated in PBS with Amplex Red, Horse Radish Peroxidase (HRP) and appropriated co-factors. ROS production was induced by addition of NADPH to NOX-expressing membrane or by addition of xanthine to xanthine oxidase. Non-specific signal was measured in the absence of membranes or in the absence of xanthine.
Antagonist activity of compounds was measured in the presence of increasing concentrations ranging from 1 nM to 100 μM. After an incubation of 20 min in a plate shaker and incubator (Titramax 1000, VWR) at 37° C. with weak agitation (300 rpm), ROS levels were measured for 10 min in a BMG Fluostar microplate reader with excitation and emission wavelengths of 544 nm and 590 nm respectively.

murine M-CSF-primed BMNC = experiment: RANKL-induced increase in cytosolic Ca2+ by Fura2 fluorescence; type: cell-based, mice; details: 20 μmol/L co-applied with RANKL during stimulation (30 hours); wildtype cells; FIG. 4B
Description: A: comparison of cells from wildtype and Nox4−/− mice; B: Effect of a Nox4 inhibitor (Compound (1) or solvent on calcium concentrations in wildtype cells; n≧3; *p<0.05.
Epiphyseal ends of the femora and tibiae were cut off and the bone marrow was flushed out with DMEM containing 10% FCS. Bone marrow stromal cells were collected and plated at a density of 2×10^6 cells/cm^2 in α-MEM containing 10% FCS and 1% penicillin/streptomycin. Following attachment, medium was replaced by basal medium supplemented with 25 ng/ml M-CSF (R&D Systems) for 2 days. Thereafter, cells were cultured for additional 6 days in differentiation medium containing 25 ng/ml M-CSF and 50 ng/ml RANKL (R&D Systems). TRAP staining was performed using the leukocyte acid phosphatase kit (Sigma) following the manufactures instructions according to Mukherjee et al., 2008, supra.
The role of Nox4 for the RANKL-induced increase in cytosolic Ca^2+ was investigated by FURA2 fluorescence as described below. […]
Cells were grown on 96 well plates and differentiated with or without RANKL as described above. […] After another washing step intracellular free Fura-2 and Ca^2+-bound Fura-2 was measured at the wavelength 340 and 380 nm by the ELISA Reader EnVision (PerkinElmer) in 100 μl HEPES Tyrode. […] Eventually the intracellular Ca^2+ was calculated as described by Grynkiewicz et al., 1985, J. Biol. Chem., 260(6):3440-3450.

[2] = tested on: female mice subjected to ovariectomy; experiment: Ovariectomy-induced osteoporosis (bone loss) in mice; type: in vivo; details: distal femur 6 weeks after ovariectomy, compound 1 at 20 and 60 mg/kg, pamidronat 10 mg/kg once a week, microCT
Procedure: BMD of the left femur was measured by peripheral quantitative computed tomography (QCT) using an XCT Research QCT machine (Stratec Medizintechnik, Pforzheim, Germany). One slice (0.2 mm thick) in the mid-diaphysis of the femur and 3 slices in the distal femoral metaphysis located 1.5, 2, and 2.5 mm proximal to the articular surface of the knee joint were measured. BMD values of the distal femoral metaphysic were calculated as the mean of 3 slices. A voxel size of 0.070 mm and a threshold of 710 mg/cm^3 were used for calculation of BMD as described in Hofbauer et al., 2009, Arthritis Rheum., 60(5):1427-1437.
The control group received daily gavages by the solvent.
To study the latter effect, female mice were subjected to ovariectomy to induce osteoporosis and the effect of pharmacological inhibition of Nox4 with a Nox4 inhibitor as well as acute genetic knockout of the protein was studied. For this, mice were subjected to ovariectomy 8 weeks after birth and treatment at 60 mg/kg with a Nox4 inhibitor of the invention was started 2 days after the operation and continued throughout the study (6 weeks).
3, Hamburg was used which completely blocks osteoclast activity. […] For this, bones were scanned with a skyscan 1176 and bone density was analysed with the integrated software using two phantoms with 0.25 g/cm^3 and 0.75 g/cm^3 as reference. A 2 mm portion of the femur from the tibia plateau was analysed for total and trabecular bone density by the software provided by the manufacturer of the machine. […] For this method, the femurs were loaded to failure by 3-point bending tests using a Zwick Z020/TN2A materials testing machine (Zwick, Ulm, Germany) with a 1 kN force detector, and a force resolution of 0.01N. The distance between the lower supports for the bending tests was 5 mm. Crosshead speed during testing was 0.2 mm/minute for all measurements. From the force-displacement data, ultimate force (Fmax; in N) was calculated.

human Nox2 = molecular target: T2, human Nox2 (Homo sapiens, UniProt P04839); experiment: ROS production by membranes expressing human Nox2, cell-free Amplex Red assay; type: biochemical; details: read-out: Ki hNox2
T2 construct: host or cells: T-REx-CHO (hNOX2 T-REx-CHO), tetracycline-induced; membrane fraction
T2 sequence (P04839 2-570 limits assumed): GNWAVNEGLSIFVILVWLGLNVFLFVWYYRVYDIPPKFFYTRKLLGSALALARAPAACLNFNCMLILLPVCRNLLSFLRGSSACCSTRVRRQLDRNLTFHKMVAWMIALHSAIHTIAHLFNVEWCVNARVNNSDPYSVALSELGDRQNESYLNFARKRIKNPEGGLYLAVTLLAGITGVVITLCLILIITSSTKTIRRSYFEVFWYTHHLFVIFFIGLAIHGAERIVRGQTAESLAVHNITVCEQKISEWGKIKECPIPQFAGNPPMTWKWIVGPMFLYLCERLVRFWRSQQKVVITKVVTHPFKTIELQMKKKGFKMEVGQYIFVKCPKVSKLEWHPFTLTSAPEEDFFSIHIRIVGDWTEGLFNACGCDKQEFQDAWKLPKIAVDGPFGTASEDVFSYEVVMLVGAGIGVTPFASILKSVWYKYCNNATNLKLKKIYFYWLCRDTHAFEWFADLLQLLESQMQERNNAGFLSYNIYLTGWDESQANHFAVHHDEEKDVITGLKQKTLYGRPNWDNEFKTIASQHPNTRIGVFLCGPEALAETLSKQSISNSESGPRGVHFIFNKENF
T2 sequence (P13498 2-195 partner limits assumed): T1 sequence (P13498 2-195 partner limits assumed)
Summary of the method: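 Membranes from tetracycline-induced (1 μg/ml, 24 h) T-REx-CHO cells stably expressing hNox2 with p22 and cofactors, incubated in PBS with Amplex Red, HRP and cofactors; NADPH starts ROS production. Compounds 1 nM–100 μM, 20 min at 37 °C, then fluorescence (544/590 nm) read for 10 min; Ki by Cheng-Prusoff.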

[3] = cell-free membranes, Amplex Red, Cheng-Prusoff, average of at least three experiments in triplicate

In the case of CN(C)c1cccc(-c2c3c(=O)n(-c4ccccc4Cl)[nH]c3cc(=O)n2C)c1 [2-(2-chlorophenyl)-4-[3-(dimethylamino)phenyl]-5-methyl-1H-pyrazolo[4,3-c]pyridine-3,6(2H,5H)-dione], the “IC50 for Nox4 relative to Nox2” value (human Nox4; Nox4 versus Nox2, assay of Example 1) is reported as “approximately 10 fold”, the antioxidant activity [1] is reported as “no antioxidant activity” and the “RANKL induced increase in cytosolic Ca2+” value (murine M-CSF-primed BMNC) is reported as “prevented the RANKL induced increase in cytosolic Ca^2+”.
NCCC(O)(P(=O)(O)O)P(=O)(O)O [pamidronat, reference compound] was tested, and the “absolute bone density (total)” value ([2]; FIG. 6A) was “increased absolute bone density”, the “absolute trabecular bone density” value ([2]; FIG. 6B) was “increased” and the “relative inhibition of ovarectomy-induced total bone loss” value ([2]; FIG. 6C) was ~50%. The “relative inhibition of trabecular bone loss” value ([2]; FIG. 6D) was “approximately 60%”.
COc1ccc(F)c(-c2c3c(=O)n(-c4ccccc4OC)[nH]c3cc(=O)n2Cc2ccn(C)n2)c1 [(13), 4-(2-fluoro-5-methoxyphenyl)-2-(2-methoxyphenyl)-5-[(1-methyl-1H-pyrazol-3-yl)methyl]-1H-pyrazolo[4,3-c]pyridine-3,6(2H,5H)-dione] was tested, and the Ki (human Nox4; [3]) was 80 nM and the Ki (human Nox2; [3]) was 985 nM.
In the case of O=c1c2c(-c3cc(F)ccc3F)n(Cc3cccnc3)c(=O)cc2[nH]n1-c1ccccc1Cl [(42), 2-(2-chlorophenyl)-4-(2,5-difluorophenyl)-5-(pyridin-3-ylmethyl)-1H-pyrazolo[4,3-c]pyridine-3,6(2H,5H)-dione], the Ki (human Nox4; [3]) is reported as 159 nM and the Ki (human Nox2; [3]) is reported as 540 nM.
With CCC(C)(C)C(=O)O[C@H]1C[C@@H](C)C=C2C=C[C@H](C)[C@H](CC[C@@H]3C[C@@H](O)CC(=O)O3)[C@H]21 [Simvastatin, reference compound] the Ki (human Nox4; Simvastatin comparison) was > 133000 nM and the Ki (human Nox2; Simvastatin comparison) was > 162000 nM.
With CNc1cccc(-c2c3c(=O)n(-c4ccccc4Cl)[nH]c3cc(=O)n2C)c1 [(32), 2-(2-chlorophenyl)-5-methyl-4-[3-(methylamino)phenyl]-1H-pyrazolo[4,3-c]pyridine-3,6(2H,5H)-dione] the Ki (human Nox4; [3]) was 114 nM and the Ki (human Nox2; [3]) was 1830 nM.
